Measurements as given in US20200171030A1, “DUAL INHIBITORS OF ALK5 AND P38A MAP KINASE” (INTEGRAL BIOSCIENCES PRIVATE LIMITED, priority 2018, published 2020).
Counter-ions that a name gives are not always drawn. Like-named read-outs stand apart in the source and are kept apart here.

What was measured:
Panc-1 = assay: Cell viability assay (resazurin, 96 hr) in Panc-1; type: cell-based; settings: Homo sapiens; Panc-1 pancreatic cell line, 96 hr exposure; read-out: Panc-1_Cell Viability_IC50
Protocol: (§1) Cell Viability Assay in MIA PaCa-2 and Panc-1
(§2) MIA PaCa-2 (ATCC® CRL-1420™) and Panc-1 (CRL-1469™), both pancreatic cell lines were seeded in their respective medium (DMEM, Cat #10569044 with 10% FBS, Cat #16000044; Gibco for Panc-1 and an additional 2.5% Horse Serum, Cat #16050122; Gibco for MIA PaCa-2) at a cell count of 3000 cells per 100 μl per well in a 96 well edge plate (167425; ThermoFisher). Cells were allowed to grow at 37° C. for 24 hr in 5% CO2 (culture conditions) in a Nuaire incubator (humidified). Serially diluted compounds (100 μl) were added to the culture plate 24 hr later and the cultures (MIA PaCa-2 and Panc-1) were further incubated in culture conditions for 96 hr. Experiment was terminated at the completion of 96 hr exposure to the drug by replacing the medium with 100 μl of 1 mM of resazurin (R7017; Sigma) prepared in culture medium and the plates were further incubated in culture conditions for 4 hr. Fluorescence was then measured using a multimodal plate reader (Biotek Synergy Neo) at an excitation wavelength of 535 nm and emission wavelength of 590 nm to obtain relative fluorescence units. Data analysis was done by subtracting the background fluorescence (only medium blank) value from each reading and then normalizing with the vehicle control (DMSO treated cells) to obtain percent survival/proliferation. Percent survival at different doses was used to calculate IC50 by fitting the curve to the “four-parameter variable slope logistic model” using Prism Graph Pad.

MIA PaCa-2 = assay: Cell viability assay (resazurin, 96 hr) in MIA PaCa-2; type: cell-based; settings: Homo sapiens; MIA PaCa-2 pancreatic cell line, 96 hr exposure; read-out: MiaPaCa-2_Cell Viability_IC50
Protocol: as §1, §2

MAPK14/p38α kinase = target: T1, MAPK14/p38α kinase (Homo sapiens, UniProt Q16539); assay: MAPK14/p38α kinase assay (LanthaScreen TR-FRET); type: biochemical; settings: for IC50: Table 3, read-out: IC50 (P38 alpha); for inhibition at 0.1 µM: 100 nM concentration of compound
T1 construct: purchased ThermoFisher PV3304
Protocol: MAPK14/p38α Kinase Assay for IC50 Determination:
IC50 values of compounds against MAPK14/P38α kinase were determined by Lanthascreen based TR-FRET assay. Kinase reactions were performed in a 10 μL volume in low-volume 384-well plates. The concentration of substrate was maintained at 400 nM in the assay, and the kinase reaction buffer (1×; Cat # PV3189, ThermoFisher) consisted of 50 mM HEPES pH 7.5, 0.01% BRIJ-35, 10 mM MgCl2, and 1 mM EGTA. Serially diluted compounds (3-fold) in DMSO (0.5% in final reaction) were incubated with cocktail of MAPK14/p38α kinase (20 ng/ml; Cat # PV3304, ThermoFisher), Substrate GFP-ATF2 (19-96), (0.4 μM; Cat # PV4445, ThermoFisher), ATP (90 μM; Cat # PV3227, ThermoFisher) and buffer. Kinase reactions were allowed to proceed for 1 hour at room temperature before EDTA (10 mM; Cat # P2825, ThermoFisher) and LanthaScreen™ Tb-antipATF2 (pThr71) Antibody (2 nM; Cat # PV4451, ThermoFisher) in TR-FRET dilution buffer (IX; Cat # PV3574, ThermoFisher) were added. The plate was allowed to incubate at room temperature for 30 minutes before being read on a BMG Pherastar plate reader using the LanthaScreen™ filter block for LanthaScreen™ TR-FRET.
The resulting TR-FRET emission ratio was plotted against the concentration of inhibitor, and the data was fit to a sigmoidal dose-response curve with a variable slope. The IC50 for the inhibitor was calculated from the curve.

TGFBR1 (ALK5) = target: T2, TGFBR1 (ALK5) (Homo sapiens, UniProt P36897); assay: ALK5 kinase assay (LanthaScreen Terbium labeled TR-FRET); type: biochemical; settings: for inhibition at 0.1 µM: 100 nM concentration of compound, read-out: Enzyme Activity TGFBR1 (ALK5) % Inhibition at 100 nM
T2 sequence (P36897 34-503): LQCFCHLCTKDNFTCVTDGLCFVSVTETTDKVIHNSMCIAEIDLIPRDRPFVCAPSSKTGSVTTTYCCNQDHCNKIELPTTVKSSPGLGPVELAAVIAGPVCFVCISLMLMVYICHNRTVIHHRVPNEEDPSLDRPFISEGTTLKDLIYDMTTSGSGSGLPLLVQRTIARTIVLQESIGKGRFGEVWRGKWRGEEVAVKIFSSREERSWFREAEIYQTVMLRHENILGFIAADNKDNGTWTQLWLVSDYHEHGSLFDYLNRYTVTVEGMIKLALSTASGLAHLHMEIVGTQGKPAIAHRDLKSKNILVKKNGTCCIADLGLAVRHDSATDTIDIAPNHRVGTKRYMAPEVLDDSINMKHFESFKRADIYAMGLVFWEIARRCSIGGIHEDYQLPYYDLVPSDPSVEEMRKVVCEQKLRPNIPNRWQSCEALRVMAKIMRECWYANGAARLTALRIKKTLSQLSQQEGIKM
Protocol: ALK5 Kinase Assay for IC50 Determination:
IC50 values of compounds against TGFβ kinase was determined by LanthaScreen™ Terbium Labeled TR-FRET assay. Kinase assays were performed in IX kinase buffer (# PV6135, Invitrogen, Life Technologies Grand Island, N.Y.) where total reaction volume was 10 μL in low-volume 384-well plates (#4511,Corning). Serially diluted compounds (3-fold) were incubated with TGFβ kinase (6 nM) for 10 min, following which a mixture of ATP (10 μM) (# A1852, Sigma, St-Louis, Mo.) and fluorescent-PolyGT substrate (200 nM) (# PV3610, Invitrogen, Life Technologies Grand Island, N.Y.) was added and incubated in dark at room temperature for 1 h. After 1 h, 10 μL stop solution containing Terbium labeled antibody (4 nM) (# PV3529, Invitrogen, Life Technologies Grand Island, N.Y.) and EDTA (# E5134, Sigma, St-Louis, Mo.) (20 mM) in TR-FRET dilution buffer (# PV3574, Invitrogen, Life Technologies Grand Island, N.Y.) was added. Readings were taken in a Synergy Neo Plate reader (BioTek, Winooski) at single excitation of 340 nm and Dual emission at 495 nm and 520 nm respectively.
The % activity of test samples was calculated as (Sample−Min)×100/(Max−Min). [Max: DMSO control, complete reaction with enzyme with DMSO and Min: No enzyme with DMSO]. Percent inhibition (100-% activity) was fitted to the “four-parameter logistic model” in XLfit for determination of IC50 values.

[1] = read-out: Enzyme Activity MAPK14 (p38 alpha) % Inhibition at 100 nM
[2] = Table 4, read-out: Enzyme Activity MAPK14 (p38alpha) % Inh at 100 nM

T1 sequence (Q16539 whole entry): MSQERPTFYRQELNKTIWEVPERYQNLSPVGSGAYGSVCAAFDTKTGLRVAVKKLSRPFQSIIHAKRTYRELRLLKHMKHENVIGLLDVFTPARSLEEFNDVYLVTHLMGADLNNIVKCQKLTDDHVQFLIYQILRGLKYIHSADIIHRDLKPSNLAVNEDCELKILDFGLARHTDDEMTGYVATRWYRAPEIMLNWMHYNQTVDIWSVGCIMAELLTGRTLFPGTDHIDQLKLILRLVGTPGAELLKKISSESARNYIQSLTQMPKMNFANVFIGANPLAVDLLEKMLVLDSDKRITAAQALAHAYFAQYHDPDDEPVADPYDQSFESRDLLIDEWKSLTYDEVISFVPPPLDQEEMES

| SMILES | IC50 (Panc-1) [nM] | IC50 (MIA PaCa-2) [nM] | IC50 (MAPK14/p38α kinase) [nM] | IC50 (TGFBR1 (ALK5); Table 3, read-out: IC50 (ALK5)) [nM] | inhibition at 0.1 µM (MAPK14/p38α kinase; [1]) [%] | inhibition at 0.1 µM (TGFBR1 (ALK5)) [%] | inhibition at 0.1 µM (MAPK14/p38α kinase; [2]) [%] | IC50 (TGFBR1 (ALK5); Table 4, read-out: ALK5 IC50) [nM] |
| --- | --- | --- | --- | --- | --- | --- | --- | --- |
| CC(C)c1cnc(-c2ccc(F)cc2)nc1Nc1ccnc2[nH]cc(N3CCNC[C@@H]3C)c12 [Compound No. 7, N-(2-(4-fluorophenyl)-5-isopropylpyrimidin-4-yl)-3-(2-methylpiperazin-1-yl)-1H-pyrrolo [2,3-b] pyridin-4-amine hydrochloride] | 2700 | 2440 | 42 | 155 | – | – | – | – |
| CC(C)c1cnc(-c2ccc(F)cc2)nc1Nc1ccnc2[nH]cc(N3CCNCC3C)c12 (stereo not shown) [Compound No. 4, N-(2-(4-fluorophenyl)-5-isopropylpyrimidin-4-yl)-3-(2-methylpiperazin-1-yl)-1H-pyrrolo[2,3-b]pyridin-4-amine hydrochloride] | 1880 | 1540 | – | – | 72 | 94 | – | – |
| CNC(=O)C(=O)c1c[nH]c2nccc(Nc3nc(-c4cc(Cl)ccc4F)ncc3C(C)C)c12 [Compound No. 18, 2-(4-((2-(5-chloro-2-fluorophenyl)-5-isopropylpyrimidin-4-yl)amino)-1H-pyrrolo[2,3-b]pyridin-3-yl)-N-methyl-2-oxoacetamide hydrochloride] | > 30000 | > 30000 | 349 | > 5000 | – | – | – | – |
| CC(C)c1cnc(-c2ccccc2)nc1Nc1ccnc2[nH]cc(C(=O)C(N)=O)c12 [Compound No. 26, 2-(4-((5-isopropyl-2-phenylpyrimidin-4-yl)amino)-1H-pyrrolo[2,3-b]pyridin-3-yl)-2-oxoacetamide hydrochloride] | > 30000 | 2200 | 244 | 602 | – | – | – | – |
| CC(C)c1cnc(-c2ccc(F)cc2)nc1Nc1ccnc2[nH]cc(N3CCCCC3)c12 [Compound No. 3, N-(2-(4-fluorophenyl)-5-isopropylpyrimidin-4-yl)-3-(piperidin-1-yl)-1H-pyrrolo [2,3-b] pyridin-4-amine hydrochloride] | > 27000 | > 30000 | – | – | 42 | 72 | – | – |
| CC(C)c1cnc(-c2ccc(F)cc2)nc1Nc1ccnc2[nH]cc(-n3cncn3)c12 [Compound No. 6, N-(2-(4-fluorophenyl)-5-isopropylpyrimidin-4-yl)-3-(1H-1,2,4-triazol-1-yl)-1H-pyrrolo [2,3-b] pyridin-4-amine hydrochloride] | 645 | 655 | – | – | 0 | 97 | – | – |
| CC(C)c1cnc(-c2ccc(F)cc2)nc1Nc1ccnc2[nH]cc(N3CCNCC3)c12 [Compound No. 1, N-(2-(4-fluorophenyl)-5-isopropylpyrimidin-4-yl)-3-(piperazin-1-yl)-1H-pyrrolo [2,3-b] pyridin-4-amine hydrochloride] | 2310 | 1630 | – | – | 61 | 99 | – | – |
| CC(C)c1cnc(-c2ccc(F)cc2)nc1Nc1ccnc2[nH]cc(N3CCNC(=O)C3)c12 [Compound No. 10, 4-(4-(2-(4-fluorophenyl)-5-isopropylpyrimidin-4-ylamino)-1H-pyrrolo [2,3-b]pyridin-3-yl) piperazin-2-one formate] | 2730 | 3460 | – | – | – | – | 28 | 303 |
| CC(C)c1ccc(-c2ccc(F)cc2)nc1Nc1ccnc2[nH]cc(C(=O)C(N)=O)c12 [Compound No. 27, 2-(4-(6-(4-fluorophenyl)-3-isopropylpyridin-2-ylamino)-1H-pyrrolo [2,3-b]pyridin-3-yl)-2-oxoacetamide hydrochloride] | > 30000 | > 30000 | – | – | – | – | 0 | > 5000 |
| CC(C)c1cnc(-c2ccc(F)cc2)nc1Nc1ccnc2[nH]cc(N3CCC(C(N)=O)CC3)c12 [Compound No. 12, 1-(4-((2-(4-fluorophenyl)-5-isopropylpyrimidin-4-yl)amino)-1H-pyrrolo[2,3-b]pyridin-3-yl)piperidine-4-carboxamide formic acid] | 2600 | 1780 | – | – | – | – | 37 | 1170 |
| CC(C)c1cnc(-c2ccc(F)cc2)nc1Nc1ccnc2[nH]cc(C(=O)C(=O)N3CCNCC3)c12 [Compound No. 23, 1-(4-(2-(4-fluorophenyl)-5-isopropylpyrimidin-4-ylamino)-1H-pyrrolo [2,3-b]pyridin-3-yl)-2-(piperazin-1-yl) ethane-1,2-dione hydrochloride] | 5850 | 1140 | 1300 | 671 | – | – | – | – |
| CC(C)c1cnc(-c2ccc(F)cc2)nc1Nc1ccnc2[nH]cc(N3CCN[C@@H](C)C3)c12 [Compound No. 11, (S)—N-(2-(4-fluorophenyl)-5-isopropylpyrimidin-4-yl)-3-(3-methylpiperazin-1-yl)-1H-pyrrolo[2,3-b]pyridin-4-amine hydrochloride] | 2820 | 2040 | – | – | – | – | 18 | 147 |
| CC(C)c1cnc(-c2ccc(F)cc2)nc1Nc1ccnc2[nH]cc(C(=O)C(N)=O)c12 [Compound No. 17, 2-(4-((2-(4-fluorophenyl)-5-isopropylpyrimidin-4-yl)amino)-1H-pyrrolo[2,3-b]pyridin-3-yl)-2-oxoacetamide hydrochloride] | > 30000 | 765 | 309 | > 5000 | – | – | – | – |
